# Data from patent publication US11147272B2, “Pyridone compounds and agricultural and horticultural fungicides comprising the same as active ingredients” (MITSUI CHEMICALS AGRO, INC., priority 2017, dated 2021).
# Key:
# [1] = tested on: Puccinia recondita; assay: Test Example E: Brown rust on wheat; assay type: in vivo; conditions: for pest or weed control at 250 µg/mL: Puccinia recondita, topical, read-out: Test E control value; for Test E control value class: class of control value
# [2] = tested on: Blumeria graminis f. sp. hordei; assay: Test Example D: Powdery mildew on barley; conditions: for pest or weed control at 250 µg/mL: Blumeria graminis, in Hordeum vulgare, topical, read-out: Test D control value; for Test D control value class: class of control value
# [3] = tested on: Phytophthora infestans; assay: whole plant or invertebrate; assay type: in vivo; conditions: for pest or weed control at 250 µg/mL: Phytophthora infestans, in Solanum lycopersicum, topical, read-out: Test F control value; for Test F control value class: class of control value
# [4] = tested on: Colletotrichum orbiculare; assay: Test Example H: Anthracnose on cucumber; conditions: for Test H control value: 6 to 10 days after inoculation; for pest or weed control at 250 ppm: Colletotrichum orbiculare, in Cucumis sativus, topical, 144 h, read-out: Test H control value; for Test H control value class: Anthracnose on cucumber (Sagami Hanjiro), 2.5 ml/pot, assessed 6 to 10 days after inoculation
# [5] = tested on: Plasmopara viticola; assay: Test Example G: Downy mildew on vine; conditions: for Test G control value: 7 to 10 days after inoculation; for pest or weed control at 250 ppm: Plasmopara viticola, topical, 168 h, read-out: Test G control value; for Test G control value class: Downy mildew on vine (Neomuscat), 2.5 ml/pot, assessed 7 to 10 days after inoculation
# [6] = tested on: Botrytis cinerea; assay: Test Example B: Gray mold on tomato; conditions: for pest or weed control at 250 µg/mL: Botrytis cinerea, in Solanum lycopersicum, topical, read-out: Test B control value; for Test B control value class: class of control value
# [7] = tested on: Alternaia brassicicola; assay: Test Example C: Alternaria sooty spot on cabbage; assay type: in vivo; conditions: for pest or weed control at 250 µg/mL: Brassica oleracea, topical, read-out: Test C control value; for Test C control value class: class of control value
# From the text: Seeds of a test plant (cabbage variety: Shikidori) were planted and cultivated until the cotyledons extended.
# <Control Value> Control value=100{1−(n/3)}
# [8] = tested on: Magnaporthe grisea; assay: whole plant or invertebrate; assay type: in vivo; conditions: for pest or weed control at 250 µg/mL: Pyricularia oryzae, in Oryza sativa, read-out: Test A control value; for Test A control value class: class of control value
# [9] = Brown rust on wheat, control value class
# [10] = Powdery mildew on barley, control value class
# [11] = Late blight on tomato, control value class
# [12] = Anthracnose on cucumber, 250 ppm spray
# [13] = Downy mildew on vine, 250 ppm spray
# [14] = Gray mold on tomato, control value class
# [15] = Alternaria sooty spot on cabbage, control value class
# [16] = Blast on rice, control value class
# [17] = Alternaria sooty spot on cabbage
# [18] = 250 ppm drug solution sprayed on test plant
SMILES,"Test E control value [1, 9]","Test D control value [2, 10]","Test F control value [3, 11]","Test H control value [4, 12]","Test G control value [5, 13]","Test B control value [6, 14]","Test C control value [7, 15]","Test A control value [8, 16]",Test E control value class ([1]; Brown rust on wheat),Test D control value class ([2]; Powdery mildew on barley),Test F control value class ([3]; Late blight on tomato),Test H control value class ([4]; 250 ppm spray),Test G control value class ([5]; 250 ppm spray),Test B control value class ([6]; Gray mold on tomato),"Test C control value class [7, 17]",Test A control value class ([8]; Blast on rice),other results
CCOC(C)(c1cc(Cl)c(=O)n(CC)c1-c1c(F)cc(F)cc1F)C(C)C (centres unmarked) [compound 228],H (more than 50% control value),H (more than 50% control value),L (50% or less control value),H (more than 50% control value),H (more than 50% control value),H (more than 50% control value),H (more than 50% control value),H (more than 50% control value),,,,,,,,,
"CCn1c(-c2c(F)cccc2F)c(C(C)(OC)C(C)C)cc(Cl)c1=O (centres unmarked) [Compound No. 187, 3-chloro-6-(2,6-difluorophenyl)-1-ethyl-5-(2-methoxy-3-methylbutan-2-yl)pyridin-2(1H)-one]",,,,,,,,,,,,,,,,,"pest or weed control at 250 µg/mL [1, 9]: > 50%; pest or weed control at 250 µg/mL [2]: > 50%; pest or weed control at 250 µg/mL [3]: < 50%; pest or weed control at 250 ppm [4]: > 50%; pest or weed control at 250 ppm [5]: > 50%; pest or weed control at 250 µg/mL [6]: > 50%; pest or weed control at 250 µg/mL [7, 15]: > 50%; pest or weed control at 250 µg/mL [8]: > 50%"
CCN(Cc1cc(Cl)c(=O)n(CC)c1-c1c(F)cc(OC)cc1F)OC [compound 152],,,,,,,,,H (more than 50% control value),H (more than 50% control value),L (50% or less control value),H (more than 50% control value),H (more than 50% control value),H (more than 50% control value),H (more than 50% control value),H (more than 50% control value),
CCn1c(-c2c(F)cc(F)cc2F)c(C(O)C(C)C)ccc1=O (centres unmarked) [compound 453],,,,,,,,,,,,,,,,,"Test E control value [1, 18]: H (more than 50% control value); Test D control value [2, 18]: H (more than 50% control value); Test F control value [3, 18]: L (50% or less control value); Test H control value ([4]; 250 ppm drug solution sprayed (2.5 ml/pot), cucumber Sagami Hanjiro): H (more than 50% control value); Test G control value ([5]; 250 ppm drug solution sprayed (2.5 ml/pot), grape Neomuscat): H (more than 50% control value); Test B control value [6, 18]: H (more than 50% control value); Test C control value [7, 18]: H (more than 50% control value); Test A control value [8, 18]: L (50% or less control value)"
CCCc1ccc(=O)n(CC)c1-c1c(F)cc(F)cc1F [compound 372],H (more than 50% control value),H (more than 50% control value),L (50% or less control value),H (more than 50% control value),H (more than 50% control value),H (more than 50% control value),H (more than 50% control value),L (50% or less control value),,,,,,,,,
CCOC(C)(c1cc(Cl)c(=O)n(CC)c1-c1c(F)cccc1F)C(C)C (racemic) [compound 188],H (more than 50% control value),H (more than 50% control value),H (more than 50% control value),H (more than 50% control value),H (more than 50% control value),H (more than 50% control value),H (more than 50% control value),H (more than 50% control value),,,,,,,,,
CC(C)Cc1ccc(=O)n(CC(F)F)c1-c1c(F)cc(F)cc1F [compound 297],H (more than 50% control value),H (more than 50% control value),L (50% or less control value),L (50% or less control value),H (more than 50% control value),H (more than 50% control value),H (more than 50% control value),L (50% or less control value),,,,,,,,,
CCn1c(-c2ccc(OCCOC)cc2F)c(CC(C)C)cc(Cl)c1=O [compound 121],,,,,,,,,H (more than 50% control value),H (more than 50% control value),L (50% or less control value),H (more than 50% control value),L (50% or less control value),H (more than 50% control value),H (more than 50% control value),H (more than 50% control value),
CCn1c(-c2ccc(F)cc2F)c(CC(C)C)ccc1=O [compound 117],,,,,,,,,H (more than 50% control value),H (more than 50% control value),L (50% or less control value),H (more than 50% control value),L (50% or less control value),H (more than 50% control value),H (more than 50% control value),H (more than 50% control value),
CCn1c(-c2ccc(F)cc2)c(C(=O)C(C)C)cc(Cl)c1=O [compound 212],H (more than 50% control value),H (more than 50% control value),L (50% or less control value),L (50% or less control value),L (50% or less control value),H (more than 50% control value),H (more than 50% control value),L (50% or less control value),,,,,,,,,
CCn1c(-c2ccc(Cl)cc2Cl)c(CC(C)C)cc(Br)c1=O [compound 140],,,,,,,,,H (more than 50% control value),H (more than 50% control value),L (50% or less control value),H (more than 50% control value),H (more than 50% control value),H (more than 50% control value),H (more than 50% control value),H (more than 50% control value),
"CCn1c(-c2ccc(F)cc2Cl)c(C=C(C)C)cc(Cl)c1=O [Compound No. 300, 3-chloro-6-(2-chloro-4-fluorophenyl)-1-ethyl-5-(2-methyl-1-propenyl)pyridin-2(1H)-one]",,,,,,,,,,,,,,,,,"pest or weed control at 250 µg/mL [1, 9]: > 50%; pest or weed control at 250 µg/mL [2]: > 50%; pest or weed control at 250 µg/mL [3]: < 50%; pest or weed control at 250 ppm [4]: > 50%; pest or weed control at 250 ppm [5]: < 50%; pest or weed control at 250 µg/mL [6]: > 50%; pest or weed control at 250 µg/mL [7, 15]: > 50%; pest or weed control at 250 µg/mL [8]: > 50%"
CCn1c(-c2ccc(C#N)cc2)c(C(C)(F)C(C)C)cc(Cl)c1=O (centres unmarked) [compound 253],L (50% or less control value),L (50% or less control value),L (50% or less control value),L (50% or less control value),L (50% or less control value),H (more than 50% control value),H (more than 50% control value),L (50% or less control value),,,,,,,,,
